Consider 23 molecules from patent US8841309B2, “Substituted pyrazines and their use in the treatment of disease” (Boehringer Ingelheim International GmbH, priority 2012, dated 2014).

The target of this assay is T1, ENaC (Mus musculus, UniProt Q61180+Q9WU38+Q9WU39).
T1 construct: Mouse kidney M-1 cells were cultivated in DMEM containing 5% FCS and 5 μM dexamethasone; endogenous in cells; host or cells: mouse kidney M-1 cells
T1 sequence (Q61180 1-699): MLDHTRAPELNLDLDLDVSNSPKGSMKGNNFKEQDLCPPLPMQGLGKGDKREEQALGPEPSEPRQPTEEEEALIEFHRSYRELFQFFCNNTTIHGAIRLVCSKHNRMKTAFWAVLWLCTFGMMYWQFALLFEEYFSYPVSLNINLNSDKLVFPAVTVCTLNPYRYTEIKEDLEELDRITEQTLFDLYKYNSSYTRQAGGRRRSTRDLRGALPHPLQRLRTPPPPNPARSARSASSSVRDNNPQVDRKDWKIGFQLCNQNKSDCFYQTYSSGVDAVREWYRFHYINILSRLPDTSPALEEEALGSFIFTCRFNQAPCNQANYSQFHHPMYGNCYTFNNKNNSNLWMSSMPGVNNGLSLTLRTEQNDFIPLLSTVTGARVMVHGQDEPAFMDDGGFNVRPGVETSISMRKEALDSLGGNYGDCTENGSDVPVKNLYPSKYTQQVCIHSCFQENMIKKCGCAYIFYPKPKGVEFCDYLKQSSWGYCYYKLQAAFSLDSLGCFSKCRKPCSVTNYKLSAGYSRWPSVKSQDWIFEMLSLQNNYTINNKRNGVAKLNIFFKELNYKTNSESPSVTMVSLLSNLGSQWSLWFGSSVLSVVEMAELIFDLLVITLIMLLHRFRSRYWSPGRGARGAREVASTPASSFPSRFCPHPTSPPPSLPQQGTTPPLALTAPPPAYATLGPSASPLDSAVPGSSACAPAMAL
T1 sequence (Q9WU38 1-638): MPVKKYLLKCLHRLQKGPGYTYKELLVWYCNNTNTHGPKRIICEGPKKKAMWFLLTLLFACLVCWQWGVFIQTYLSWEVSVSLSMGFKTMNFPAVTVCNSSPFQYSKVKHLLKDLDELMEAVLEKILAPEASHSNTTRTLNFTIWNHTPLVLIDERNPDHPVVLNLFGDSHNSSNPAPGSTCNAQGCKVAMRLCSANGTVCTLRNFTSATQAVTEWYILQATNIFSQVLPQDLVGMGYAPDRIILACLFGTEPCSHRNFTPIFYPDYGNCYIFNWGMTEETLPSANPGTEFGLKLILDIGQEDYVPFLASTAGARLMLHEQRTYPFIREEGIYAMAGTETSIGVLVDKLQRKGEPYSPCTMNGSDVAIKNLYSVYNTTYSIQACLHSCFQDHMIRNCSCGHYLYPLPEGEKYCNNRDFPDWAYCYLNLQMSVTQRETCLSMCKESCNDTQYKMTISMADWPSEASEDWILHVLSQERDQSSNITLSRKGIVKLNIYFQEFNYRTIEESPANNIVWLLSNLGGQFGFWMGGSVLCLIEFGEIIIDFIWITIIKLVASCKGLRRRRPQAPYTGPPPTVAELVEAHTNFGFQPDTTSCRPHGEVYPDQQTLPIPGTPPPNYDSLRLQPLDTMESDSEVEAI
T1 sequence (Q9WU39 1-655): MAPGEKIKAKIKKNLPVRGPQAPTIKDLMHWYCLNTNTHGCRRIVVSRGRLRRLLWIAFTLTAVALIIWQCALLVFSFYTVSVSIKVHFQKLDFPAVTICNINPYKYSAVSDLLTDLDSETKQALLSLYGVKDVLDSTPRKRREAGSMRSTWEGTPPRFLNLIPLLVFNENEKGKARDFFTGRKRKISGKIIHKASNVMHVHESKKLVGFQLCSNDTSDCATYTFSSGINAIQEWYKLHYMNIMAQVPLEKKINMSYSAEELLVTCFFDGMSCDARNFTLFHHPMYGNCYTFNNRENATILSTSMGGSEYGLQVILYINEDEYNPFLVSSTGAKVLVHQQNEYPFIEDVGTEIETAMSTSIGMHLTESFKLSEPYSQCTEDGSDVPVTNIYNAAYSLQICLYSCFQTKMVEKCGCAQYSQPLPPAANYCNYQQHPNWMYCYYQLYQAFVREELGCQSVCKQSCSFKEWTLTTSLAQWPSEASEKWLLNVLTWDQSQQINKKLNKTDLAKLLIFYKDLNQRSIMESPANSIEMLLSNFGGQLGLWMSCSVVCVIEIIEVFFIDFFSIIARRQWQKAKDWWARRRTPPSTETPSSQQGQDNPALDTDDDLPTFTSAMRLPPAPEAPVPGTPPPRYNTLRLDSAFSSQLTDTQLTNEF
In words: Ussing chamber: short circuit current (I_sc) in mouse kidney M-1 cells, amiloride-sensitive. Particulars: compound applied to apical solution, 37° C. The format is cell-based. How it is done: Ussing Chamber: Mouse kidney M-1 cells were cultivated in DMEM containing 5% FCS and 5 μM dexamethasone for 10 to 12 days on polyester transwell filters. Filters were inserted into a teflon-coated well-plate which fit into the in-house ussing chamber system. Prior to measurement the medium of M-1 cells was replaced with Caco-2 transport buffer (Invitrogen, Germany). During measurements, the Ussing chamber temperature was kept at 37° C. Short circuit currents (I_sc) were measured in the voltage-clamp mode using an in-house built amplifier (Boehringer Ingelheim, Biberach) with the software package Lab View for data acquisition and analysis. The transepithelial electrical resistance (TEER) was determined by the application of voltage steps of ±5 mV every 5 sec. Compounds were administered at a final concentration of 3 μM or at increasing concentrations (1-3-10 μM) to the apical solution. At the end of each experiment the amiloride sensitive I_SC was measured by adding 3 μM amiloride to the apical compartment. Results are expressed as inhibition in percent of the amiloride effect or as IC50.
The molecule `C[N+]1(CC(=O)Nc2cccc(F)c2)CCC[C@H](NC(N)=NC(=O)c2nc(Cl)c(N)nc2N)C1` (mixture of isomers) [Example 70.4] showed a half-inhibitory concentration (IC50) of 0.031 µM.
Then `C[N+]1(CC(=O)NCc2ccc(Cl)cc2)CCC[C@@H](N/C(N)=N/C(=O)c2nc(Cl)c(N)nc2N)C1` (mixture of isomers) [Example 70.5], with 0.045 µM.
The same measure for `CCNC(=O)C[N+]1(C)CCC[C@H](N/C(N)=N/C(=O)c2nc(Cl)c(N)nc2N)C1` (mixture of isomers) [Example 70.6]: 0.046 µM.
In the case of `C[N+]1(CC(=O)NCc2ccc(Cl)cc2)CCC[C@H](N/C(N)=N/C(=O)c2nc(Cl)c(N)nc2N)C1` (mixture of isomers) [Example 71.1], half-maximal inhibition (IC50) required 0.0306 µM.
Then `C[N+]1(Cc2ccccc2)CCC[C@H](N/C(N)=N/C(=O)c2nc(Cl)c(N)nc2N)C1` (stereo in doubt) [Example 71, (S)-1-Benzyl-3-[N′-(3,5-diamino-6-chloro-pyrazine-2-carbonyl)-guanidino]-1-methyl-piperidinium chloride], with 0.081 µM.
The molecule `COC(=O)c1cccc(C[N+]2(C)CCC[C@H](N/C(N)=N/C(=O)c3nc(Cl)c(N)nc3N)C2)c1` (stereo in doubt) [Example 72, (S)-3-[N′-(3,5-Diamino-6-chloro-pyrazine-2-carbonyl)-guanidino]-1-(3-methoxycarbonyl-benzyl)-1-methyl-piperidinium chloride] returned a 50% inhibitory concentration (IC50) of 0.122 µM.
The same measure for `N/C(=N\C(=O)c1nc(Cl)c(N)nc1N)NC1C[N+]2(CC(=O)O)CCC1CC2` (centres unmarked) [Example 1, 1-Carboxymethyl-3-[N′-(3,5-diamino-6-chloro-pyrazine-2-carbonyl)-guanidino]-1-azoniabicyclo[2.2.2]octane bromide]: 0.468 µM.
On to `COc1cc(C[N+]23CCC(CC2)C(N/C(N)=N/C(=O)c2nc(Cl)c(N)nc2N)C3)cc(OC)c1OC` (centres unmarked) [Example 2, 3-[N′-(3,5-Diamino-6-chloro-pyrazine-2-carbonyl)-guanidino]-1-(3,4,5-trimethoxybenzyl)-1-azoniabicyclo[2.2.2]octane chloride], for which half-maximal inhibition (IC50) was put at 0.126 µM.
The same measure for `N/C(=N\C(=O)c1nc(Cl)c(N)nc1N)NC1C[N+]2(CC(=O)Nc3ccccc3)CCC1CC2` (centres unmarked) [Example 3, 3-[N′-(3,5-Diamino-6-chloro-pyrazine-2-carbonyl)-guanidino]-1-phenylcarbamoylmethyl-1-azoniabicyclo[2.2.2]octane chloride]: 0.026 µM.
Molecule `N/C(=N\C(=O)c1nc(Cl)c(N)nc1N)NC1C[N+]2(Cc3ccccc3)CCC1CC2` (centres unmarked) [Example 4, 1-Benzyl-3-[N′-(3,5-diamino-6-chloro-pyrazine-2-carbonyl)-guanidino]-1-azoniabicyclo[2.2.2]octane bromide] showed a half-maximal inhibitory concentration (IC50) of 0.043 µM.
The same measure for `N/C(=N\C(=O)c1nc(Cl)c(N)nc1N)N[C@H]1C[N+]2(Cc3ccccc3)CCC1CC2` [Example 5, (R)-1-Benzyl-3-[N′-(3,5-diamino-6-chloro-pyrazine-2-carbonyl)-guanidino]-1-azoniabicyclo[2.2.2]octane bromide]: 0.46 µM; for `N/C(=N\C(=O)c1nc(Cl)c(N)nc1N)N[C@@H]1C[N+]2(Cc3ccccc3)CCC1CC2` [Example 6, (S)-1-Benzyl-3-[N′-(3,5-diamino-6-chloro-pyrazine-2-carbonyl)-guanidino]-1-azoniabicyclo[2.2.2]octane bromide]: 0.028 µM.
Molecule `N/C(=N\C(=O)c1nc(Br)c(N)nc1N)N[C@@H]1C[N+]2(Cc3ccccc3)CCC1CC2` [Example 6.1, (S)-1-Benzyl-3-[N′-(3,5-diamino-6-bromo-pyrazine-2-carbonyl)-guanidino]-1-azoniabicyclo[2.2.2]octane bromide] showed a concentration for half-maximal inhibition (IC50) of 0.029 µM.
As for `COc1ccc(C[N+]23CCC(CC2)[C@H](N/C(N)=N/C(=O)c2nc(Cl)c(N)nc2N)C3)cc1` [Example 7, (S)-3-[N′(3,5-Diamino-6-chloro-pyrazine-2-carbonyl)-guanidino]-1-(4-methoxybenzyl)-1-azoniabicyclo[2.2.2]octane chloride], the IC50 came out at 0.02 µM.
Then `CC(C)(C)c1ccc(C[N+]23CCC(CC2)[C@H](N/C(N)=N/C(=O)c2nc(Cl)c(N)nc2N)C3)cc1` [Example 8, (S)-1-(4-tert-Butyl-benzyl)-3-[N′-(3,5-diamino-6-chloro-pyrazine-2-carbonyl)-guanidino]-1-azoniabicyclo[2.2.2]octane chloride], with 0.041 µM.
Regarding `NC(=NC(=O)c1nc(Cl)c(N)nc1N)N[C@@H]1C[N+]2(Cc3cccc(SC(F)(F)F)c3)CCC1CC2` [Example 9], the midpoint of inhibition, the IC50, lay at 0.003 µM.
The same measure for `NC(=NC(=O)c1nc(Cl)c(N)nc1N)N[C@@H]1C[N+]2(Cc3ccccc3SC(F)(F)F)CCC1CC2` [Example 10]: 0.06 µM.
For the molecule `N/C(=N\C(=O)c1nc(Cl)c(N)nc1N)N[C@@H]1C[N+]2(Cc3ccc4ccccc4n3)CCC1CC2` [Example 11, (S)-3-[N′-(3,5-Diamino-6-chloro-pyrazine-2-carbonyl)-guanidino]-1-quinolin-2-ylmethyl-1-azoniabicyclo[2.2.2]octane chloride], the IC50 was 0.029 µM.
Then `N/C(=N\C(=O)c1nc(Cl)c(N)nc1N)N[C@@H]1C[N+]2(Cc3ccc(C(F)(F)F)nc3)CCC1CC2` [Example 12, (S)-3-[N′-(3,5-Diamino-6-chloro-pyrazine-2-carbonyl)-guanidino]-1-(6-trifluoromethyl-pyridin-3-ylmethyl)-1-azonia-bicyclo[2.2.2]octane chloride], with 0.063 µM; and `N/C(=N\C(=O)c1nc(Cl)c(N)nc1N)N[C@@H]1C[N+]2(Cc3ccccn3)CCC1CC2` [Example 13, (S)-3-[N′-(3,5-Diamino-6-chloro-pyrazine-2-carbonyl)-guanidino]-1-pyridin-2-ylmethyl-1-azoniabicyclo[2.2.2]octane chloride], with 0.09 µM.
Then `N/C(=N\C(=O)c1nc(Cl)c(N)nc1N)N[C@@H]1C[N+]2(Cc3ccc(F)cc3)CCC1CC2` [Example 14, (S)-3-[N′-(3,5-Diamino-6-chloro-pyrazine-2-carbonyl)-guanidino]-1-(4-fluoro-benzyl)-1-azoniabicyclo[2.2.2]octane chloride], with 0.028 µM; and `NC(=NC(=O)c1nc(Cl)c(N)nc1N)N[C@@H]1C[N+]2(Cc3ccc(Cl)cc3)CCC1CC2` [Example 15], with 0.018 µM.
`COc1cccc(C[N+]23CCC(CC2)[C@H](NC(N)=NC(=O)c2nc(Cl)c(N)nc2N)C3)c1` [Example 16] registered an IC50 of 0.014 µM.

What is called IC50 is the concentration that gives 50% inhibition.
